Experimental data from PubChem BioAssay (NCI).
Several values for one entry are separate records, joined by “and”; a condition that tells them apart may be missing. Equal values may be shown once.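 Assay format: 96-well plates, 48-hour exposure. The concentration for 50% growth inhibition is given as GI50. TGI: concentration producing complete growth inhibition.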

Experiments:
Test in all cases: DTP human tumour cell line panel, 48 h
HCT-15 colon = tested on: HCT-15 colon
BT-549 breast = tested on: BT-549 breast
DU-145 prostate = tested on: DU-145 prostate
SNB-19 CNS = tested on: SNB-19 CNS
SK-OV-3 ovarian = tested on: SK-OV-3 ovarian
NCI-H226 lung = tested on: NCI-H226 lung
HOP-92 NSCLC = tested on: HOP-92 NSCLC
SK-MEL-28 melanoma = tested on: SK-MEL-28 melanoma
TK-10 renal = tested on: TK-10 renal
NCI-H23 lung = tested on: NCI-H23 lung
A549 NSCLC = tested on: A549 NSCLC
HOP-62 NSCLC = tested on: HOP-62 NSCLC
HS 578T breast = tested on: HS 578T breast
M14 melanoma = tested on: M14 melanoma
NCI-H522 lung = tested on: NCI-H522 lung
PC-3 prostate = tested on: PC-3 prostate
RPMI-8226 leukemia = tested on: RPMI-8226 leukemia
SW-620 colon = tested on: SW-620 colon
SF-295 CNS = tested on: SF-295 CNS
MOLT-4 leukemia = tested on: MOLT-4 leukemia
OVCAR-5 ovarian = tested on: OVCAR-5 ovarian
HCC-2998 colon = tested on: HCC-2998 colon
LOX IMVI melanoma = tested on: LOX IMVI melanoma
RXF 393 renal = tested on: RXF 393 renal
KM12 colon = tested on: KM12 colon
UACC-257 melanoma = tested on: UACC-257 melanoma
SK-MEL-2 melanoma = tested on: SK-MEL-2 melanoma
OVCAR-4 ovarian = tested on: OVCAR-4 ovarian
A498 renal = tested on: A498 renal
SR leukemia = tested on: SR leukemia
CCRF-CEM leukemia = tested on: CCRF-CEM leukemia
CAKI-1 renal = tested on: CAKI-1 renal
SK-MEL-5 melanoma = tested on: SK-MEL-5 melanoma
MDA-MB-435 = tested on: MDA-MB-435
IGROV1 ovarian = tested on: IGROV1 ovarian
K-562 leukemia = tested on: K-562 leukemia
SNB-75 CNS = tested on: SNB-75 CNS
MDA-MB-231 breast = tested on: MDA-MB-231 breast
MALME-3M melanoma = tested on: MALME-3M melanoma
HT29 colon = tested on: HT29 colon
SN12C renal = tested on: SN12C renal
HCT-116 colon = tested on: HCT-116 colon
NCI-H460 lung = tested on: NCI-H460 lung
NCI/ADR-RES ovarian = tested on: NCI/ADR-RES ovarian
MCF7 breast = tested on: MCF7 breast
786-0 renal = tested on: 786-0 renal
U251 CNS = tested on: U251 CNS
OVCAR-3 ovarian = tested on: OVCAR-3 ovarian
T-47D breast = tested on: T-47D breast
UO-31 renal = tested on: UO-31 renal
SF-539 CNS = tested on: SF-539 CNS
SF-268 CNS = tested on: SF-268 CNS
EKVX NSCLC = tested on: EKVX NSCLC
UACC-62 melanoma = tested on: UACC-62 melanoma
ACHN renal = tested on: ACHN renal
OVCAR-8 ovarian = tested on: OVCAR-8 ovarian
HL-60(TB) leukemia = tested on: HL-60(TB) leukemia
COLO 205 colon = tested on: COLO 205 colon

CC/C(=C(\c1ccc(O)cc1)c1ccc(OCCNC)cc1)c1ccccc1
GI50 (HCT-15 colon): 1.8 µM and 1.56 µM | TGI (HCT-15 colon): 3.92 µM and 3.2 µM and 3.71 µM | GI50 (BT-549 breast): 2.39 µM and 1.84 µM and 3.33 µM | TGI (BT-549 breast): 5.61 µM and 3.77 µM and 8.64 µM | GI50 (DU-145 prostate): 2.15 µM and 1.71 µM and 2.33 µM | TGI (DU-145 prostate): 4.36 µM and 3.46 µM and 5.25 µM | GI50 (SNB-19 CNS): 3.61 µM and 2.67 µM and 2.63 µM | TGI (SNB-19 CNS): 10.9 µM and 8.03 µM and 7.01 µM | GI50 (SK-OV-3 ovarian): 5.14 µM and 3.69 µM and 2.08 µM | TGI (SK-OV-3 ovarian): 13.6 µM and 9.3 µM and 5.09 µM | GI50 (NCI-H226 lung): 9.26 µM and 6.49 µM and 4.33 µM | TGI (NCI-H226 lung): 28.4 µM and 23.7 µM and 17 µM | TGI (HOP-92 NSCLC): 2.04 µM and 2.96 µM and 7.46 µM | GI50 (SK-MEL-28 melanoma): 1.67 µM and 1.55 µM and 1.74 µM | TGI (SK-MEL-28 melanoma): 3.04 µM and 2.94 µM and 3.28 µM | GI50 (TK-10 renal): 2.39 µM and 1.88 µM and 2.56 µM | TGI (TK-10 renal): 5.5 µM and 3.89 µM and 6.26 µM | GI50 (NCI-H23 lung): 2.13 µM and 1.97 µM and 2.1 µM | TGI (NCI-H23 lung): 4.8 µM and 4.29 µM and 4.45 µM | GI50 (A549 NSCLC): 2.33 µM and 1.79 µM and 1.74 µM | TGI (A549 NSCLC): 5.55 µM and 3.49 µM and 3.75 µM | GI50 (HOP-62 NSCLC): 1.88 µM and 1.83 µM and 1.71 µM | TGI (HOP-62 NSCLC): 3.35 µM and 3.32 µM and 3.42 µM | GI50 (HS 578T breast): 0.356 µM and 1.34 µM and 1.78 µM | TGI (HS 578T breast): 3.42 µM and 3.32 µM and 5.18 µM | GI50 (M14 melanoma): 1.8 µM and 1.75 µM and 1.86 µM | TGI (M14 melanoma): 3.25 µM and 3.24 µM and 3.63 µM | GI50 (NCI-H522 lung): 1.78 µM and 1.5 µM and 1.97 µM | TGI (NCI-H522 lung): 3.84 µM and 3.19 µM and 3.83 µM | GI50 (PC-3 prostate): 1.84 µM and 1.77 µM and 2.25 µM | TGI (PC-3 prostate): 5.92 µM and 4.85 µM and 5.53 µM | GI50 (RPMI-8226 leukemia): 2.08 µM and 1.99 µM and 2.27 µM | TGI (RPMI-8226 leukemia): 5.05 µM and 4.58 µM and 5.73 µM | GI50 (SW-620 colon): 1.69 µM and 1.75 µM and 1.85 µM | TGI (SW-620 colon): 3.11 µM and 3.26 µM and 3.74 µM | GI50 (SF-295 CNS): 1.72 µM and 1.84 µM and 1.94 µM | TGI (SF-295 CNS): 3.48 µM and 3.55 µM and 4.09 µM | GI50 (MOLT-4 leukemia): 3.22 µM and 1.94 µM and 2.98 µM | TGI (MOLT-4 leukemia): 8.37 µM and 5.92 µM and 8.57 µM | GI50 (OVCAR-5 ovarian): 2.82 µM and 2.44 µM and 2.09 µM | TGI (OVCAR-5 ovarian): 8.23 µM and 6.35 µM and 4.77 µM | GI50 (HCC-2998 colon): 1.8 µM and 1.78 µM and 1.88 µM | TGI (HCC-2998 colon): 3.28 µM and 3.23 µM and 3.62 µM | GI50 (LOX IMVI melanoma): 1.47 µM and 1.45 µM and 1.73 µM | TGI (LOX IMVI melanoma): 2.79 µM and 2.77 µM and 3.22 µM | GI50 (RXF 393 renal): 1.5 µM and 1.63 µM and 1.37 µM | TGI (RXF 393 renal): 3.68 µM and 3.3 µM and 2.8 µM | GI50 (KM12 colon): 1.7 µM and 1.64 µM and 1.81 µM | TGI (KM12 colon): 3.15 µM and 3.14 µM and 3.49 µM | GI50 (UACC-257 melanoma): 1.93 µM and 1.64 µM and 1.7 µM | TGI (UACC-257 melanoma): 3.82 µM and 3.35 µM and 3.28 µM | GI50 (SK-MEL-2 melanoma): 2.04 µM and 1.85 µM and 2.1 µM | TGI (SK-MEL-2 melanoma): 4.02 µM and 3.65 µM and 3.85 µM | GI50 (OVCAR-4 ovarian): 4.62 µM and 4.21 µM | TGI (OVCAR-4 ovarian): 18.5 µM and 15 µM | GI50 (A498 renal): 2.33 µM and 1.84 µM | TGI (A498 renal): 10.2 µM and 4.12 µM and 8.67 µM | GI50 (SR leukemia): 2.42 µM and 1.63 µM and 2.22 µM | TGI (SR leukemia): 5.85 µM and 4.11 µM and 5.54 µM | GI50 (CCRF-CEM leukemia): 2.96 µM and 2.56 µM and 2.75 µM | TGI (CCRF-CEM leukemia): 11 µM and 8.6 µM and 7.58 µM | GI50 (CAKI-1 renal): 1.82 µM and 1.68 µM and 2.02 µM | TGI (CAKI-1 renal): 4.28 µM and 3.52 µM and 6.29 µM | GI50 (SK-MEL-5 melanoma): 1.77 µM and 1.66 µM and 1.71 µM | TGI (SK-MEL-5 melanoma): 3.17 µM and 3.07 µM | GI50 (MDA-MB-435): 1.51 µM and 1.57 µM and 1.58 µM | TGI (MDA-MB-435): 3.04 µM and 3.07 µM and 3.02 µM | GI50 (IGROV1 ovarian): 1.93 µM and 1.65 µM and 2.38 µM | TGI (IGROV1 ovarian): 4.13 µM and 3.25 µM and 5.4 µM | GI50 (K-562 leukemia): 2 µM and 1.74 µM and 2.11 µM | TGI (K-562 leukemia): 4.88 µM and 3.89 µM and 5.66 µM | GI50 (SNB-75 CNS): 2.15 µM and 1.96 µM and 1.32 µM | TGI (SNB-75 CNS): 7.39 µM and 6.81 µM and 2.76 µM | GI50 (MDA-MB-231 breast): 1.89 µM and 1.65 µM and 1.61 µM | TGI (MDA-MB-231 breast): 4.31 µM and 3.52 µM and 3.22 µM | GI50 (MALME-3M melanoma): 1.76 µM and 1.66 µM and 1.82 µM | TGI (MALME-3M melanoma): 3.49 µM and 3.29 µM and 3.5 µM | GI50 (HT29 colon): 1.71 µM and 1.55 µM | TGI (HT29 colon): 3.39 µM and 2.92 µM and 3.46 µM | GI50 (SN12C renal): 1.98 µM and 2.86 µM and 3.02 µM | TGI (SN12C renal): 8.84 µM and 9.58 µM and 10.4 µM | GI50 (HCT-116 colon): 1.61 µM and 1.54 µM and 1.73 µM | TGI (HCT-116 colon): 2.98 µM and 2.95 µM and 3.22 µM | GI50 (NCI-H460 lung): 1.98 µM and 1.83 µM and 1.89 µM | TGI (NCI-H460 lung): 3.67 µM and 3.45 µM and 3.66 µM | GI50 (NCI/ADR-RES ovarian): 2.6 µM and 2.55 µM and 2.5 µM | TGI (NCI/ADR-RES ovarian): 6.83 µM and 7.06 µM and 6.81 µM | GI50 (MCF7 breast): 0.788 µM and 0.427 µM | TGI (MCF7 breast): 2.84 µM and 2.83 µM and 2.81 µM | GI50 (786-0 renal): 1.73 µM and 1.72 µM | TGI (786-0 renal): 3.13 µM and 3.19 µM and 3.35 µM | GI50 (U251 CNS): 1.57 µM and 1.5 µM and 1.66 µM | TGI (U251 CNS): 2.92 µM and 2.83 µM and 3.15 µM | GI50 (OVCAR-3 ovarian): 2.09 µM and 1.72 µM and 1.97 µM | TGI (OVCAR-3 ovarian): 4.11 µM and 3.16 µM and 3.9 µM | GI50 (T-47D breast): 1.3 µM and 1.21 µM and 1.25 µM | TGI (T-47D breast): 3.83 µM and 3.43 µM and 4.01 µM | GI50 (UO-31 renal): 1.54 µM and 1.32 µM and 1.67 µM | TGI (UO-31 renal): 4.41 µM and 3 µM and 3.57 µM | GI50 (SF-539 CNS): 1.74 µM and 1.7 µM and 1.59 µM | TGI (SF-539 CNS): 3.15 µM and 3.09 µM and 3.01 µM | GI50 (SF-268 CNS): 2.25 µM and 1.74 µM and 2.06 µM | TGI (SF-268 CNS): 5.24 µM and 3.76 µM and 4.74 µM | GI50 (EKVX NSCLC): 2.41 µM and 2.04 µM | TGI (EKVX NSCLC): 8.86 µM and 5.59 µM | GI50 (UACC-62 melanoma): 1.66 µM and 1.65 µM and 1.78 µM | TGI (UACC-62 melanoma): 3.41 µM and 3.24 µM and 3.44 µM | GI50 (ACHN renal): 2.11 µM and 1.65 µM and 1.94 µM | TGI (ACHN renal): 4.85 µM and 3.48 µM and 4.1 µM | GI50 (OVCAR-8 ovarian): 2.6 µM and 2.18 µM and 2.4 µM | TGI (OVCAR-8 ovarian): 6.66 µM and 5.28 µM and 5.78 µM | GI50 (HL-60(TB) leukemia): 1.88 µM and 1.89 µM and 2.39 µM | TGI (HL-60(TB) leukemia): 4.43 µM and 4.07 µM and 5.44 µM | GI50 (COLO 205 colon): 1.78 µM and 1.8 µM | TGI (COLO 205 colon): 3.28 µM and 3.31 µM and 3.44 µM
